We go through 18 molecules from US9321790B2, “Pyrimidinone derivatives as antimalarial agents” (SANOFI, priority 2012, dated 2016).

Read-outs that look alike come from different tables or passages of the source. Where only a bound is given, the exact number is not on record here.

The subject of test [1] is Plasmodium falciparum (strain NF54). As to the kind of experiment: Antimalarial activity test: growth of Plasmodium falciparum in infected human erythrocytes, 3H-hypoxanthine incorporation. The format is cell-based. The settings on record: strain NF54 sensitive to chloroquine, 72 h total incubation. The procedure: The compounds according to the invention underwent pharmacological trials to determine their inhibitory effect on the growth of Plasmodium falciparum (strain NF54 sensitive to inhibition with chloroquine) in an in vitro test using infected human erythrocytes. The growth of the parasites is measured via the incorporation of tritiated hypoxanthine compared with the incorporation in the absence of drug. The tests are performed in 96-well microplates (Falcon™ 96-well microtiter plates, ref. No. 353072) in RPMI 1640 solutions (10.44 g/l) (without hypoxanthine) with HEPES (5.94 g/l), NaHCO3 (2.1 g/l), neomycin ([…])+AlbumaxR II (5 g/l) supplemented with human erythrocytes with a final hematocrit of 1.25% and a final parasitemia of 0.15%.
The stock solution of the compounds is prepared at 10 mg/mL in DMSO. For the test, fresh solutions at the desired concentrations are prepared in RPMI medium. For the test, 100 μl of compound are mixed with 100 μl of infected blood. For the determination of the IC50 values, the compounds are tested in twofold serial dilution.
The plates are incubated at 37° C. under a humid atmosphere with 93% N2, 4% CO2 and 3% O2. After 48 hours, 50 μl of ^3H-hypoxanthine (=0.5 μCi) in RPMI medium are added to each well and incubation is continued for a further 24 hours. Next, the plates are washed with distilled water and the cell lyzate is transferred onto fiberglass filters. The filters are dried and the radioactivity is determined by liquid scintillation. The results in cpm are converted into percentages of inhibition. The inhibitory activity is given by the concentration that inhibits 50% of the growth of the parasite relative to a control without compound.

Another test has as its target human PI3Kα (Homo sapiens (Human), UniProt P42336). Briefly: Human PI3Kα activity test (luciferin/luciferase ATP consumption, KinaseGlo). The format is biochemical. Conditions: read-out: IC50 Human PI3Kα.
Setting [2] is: Plasmodium falciparum, Erythrocyte.
[3] abbreviates: PI3Kα (p110α/p85α), 50 μM PIP2, 2 μM ATP, 90 minutes.
Where [4] appears, read: known compounds of WO 2011/001 112 and WO 2011/001 113.

human PI3Kα, sequence (P42336 whole entry): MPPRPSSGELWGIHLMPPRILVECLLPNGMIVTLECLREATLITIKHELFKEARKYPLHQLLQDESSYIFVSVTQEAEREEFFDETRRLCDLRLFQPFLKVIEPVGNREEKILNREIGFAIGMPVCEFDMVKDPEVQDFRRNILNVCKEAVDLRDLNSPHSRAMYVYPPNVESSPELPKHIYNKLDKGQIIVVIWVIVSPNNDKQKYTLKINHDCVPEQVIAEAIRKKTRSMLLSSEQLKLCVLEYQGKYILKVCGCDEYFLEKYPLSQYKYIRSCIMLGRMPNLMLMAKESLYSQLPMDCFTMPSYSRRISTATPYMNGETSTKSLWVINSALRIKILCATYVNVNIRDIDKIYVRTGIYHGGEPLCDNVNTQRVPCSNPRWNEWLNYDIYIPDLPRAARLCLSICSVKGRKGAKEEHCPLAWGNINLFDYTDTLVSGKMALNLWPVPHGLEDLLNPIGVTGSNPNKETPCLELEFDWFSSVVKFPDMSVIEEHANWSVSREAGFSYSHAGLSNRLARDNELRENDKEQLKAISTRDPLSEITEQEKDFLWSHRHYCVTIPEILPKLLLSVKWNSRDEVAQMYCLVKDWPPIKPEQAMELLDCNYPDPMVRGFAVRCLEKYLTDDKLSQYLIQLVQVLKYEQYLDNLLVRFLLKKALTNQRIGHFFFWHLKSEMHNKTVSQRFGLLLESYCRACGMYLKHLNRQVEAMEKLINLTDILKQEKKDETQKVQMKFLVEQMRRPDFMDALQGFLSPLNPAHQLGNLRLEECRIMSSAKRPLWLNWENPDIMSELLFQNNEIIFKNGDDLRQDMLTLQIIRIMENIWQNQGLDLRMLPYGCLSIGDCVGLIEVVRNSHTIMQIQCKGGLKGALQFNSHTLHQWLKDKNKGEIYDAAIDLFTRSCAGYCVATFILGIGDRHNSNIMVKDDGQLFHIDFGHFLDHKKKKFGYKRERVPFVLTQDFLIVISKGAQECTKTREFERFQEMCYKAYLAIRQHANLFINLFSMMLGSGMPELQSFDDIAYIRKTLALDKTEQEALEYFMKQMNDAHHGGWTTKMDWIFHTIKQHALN
human PI3Kα, sequence (P27986 whole entry partner): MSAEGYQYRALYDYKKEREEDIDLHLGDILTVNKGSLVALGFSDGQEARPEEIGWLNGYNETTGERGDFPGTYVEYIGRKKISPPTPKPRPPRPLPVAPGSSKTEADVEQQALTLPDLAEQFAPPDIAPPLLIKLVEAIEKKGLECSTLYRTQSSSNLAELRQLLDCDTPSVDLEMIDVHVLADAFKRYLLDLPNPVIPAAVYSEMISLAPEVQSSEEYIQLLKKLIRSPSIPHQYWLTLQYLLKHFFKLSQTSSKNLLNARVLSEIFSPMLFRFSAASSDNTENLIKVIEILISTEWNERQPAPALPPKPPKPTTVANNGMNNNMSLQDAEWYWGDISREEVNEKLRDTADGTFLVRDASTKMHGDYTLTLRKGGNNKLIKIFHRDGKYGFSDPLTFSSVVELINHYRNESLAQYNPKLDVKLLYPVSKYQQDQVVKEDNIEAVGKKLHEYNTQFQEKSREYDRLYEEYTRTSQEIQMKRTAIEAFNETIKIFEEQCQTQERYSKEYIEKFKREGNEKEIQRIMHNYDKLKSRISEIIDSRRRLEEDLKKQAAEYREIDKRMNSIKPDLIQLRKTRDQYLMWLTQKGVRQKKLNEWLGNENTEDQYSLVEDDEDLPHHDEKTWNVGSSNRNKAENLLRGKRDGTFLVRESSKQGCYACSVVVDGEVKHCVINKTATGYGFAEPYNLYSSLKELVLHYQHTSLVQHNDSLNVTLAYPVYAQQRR
Method for human PI3Kα: The test uses a luciferin/luciferase system to measure the concentration of ATP and its consumption during the enzymatic reaction.
After 90 minutes, the reaction is quenched by adding 20 μl/well of KinaseGlo reagent (Promega V6713). After 10 minutes in the dark, the luminescence is read using a PHERAStar microplate reader (reading at 0.8 sec/well).

For `CC(C)(CN1c2nc(N3C[C@@H]4C[C@H]3CO4)cc(=O)n2CC[C@H]1C(F)(F)F)c1ccncc1` [Compound 1, (8S)-9-(2-methyl-2-pyrid-4-ylpropyl)-2-(1S,4S)-2-oxa-5-azabicyclo[2.2.1]hept-5-yl-8-trifluoromethyl-6,7,8,9-tetrahydropyrimido[1,2-a]pyrimidin-4-one], the IC50 (in general, the concentration that inhibits the measured activity by half) worked out at 20 nM in test [1] (setting [2]) and 3130 nM at human PI3Kα (setting [3]).

For `O=C(CN1c2nc(N3C[C@@H]4C[C@H]3CO4)cc(=O)n2CC[C@H]1C(F)(F)F)c1ccncc1` [Compound 2, (8S)-2-(1S,4S)-2-oxa-5-azabicyclo[2.2.1]hept-5-yl-9-(2-oxo-2-pyrid-4-ylethyl)-8-trifluoromethyl-6,7,8,9-tetrahydropyrimido[1,2-a]pyrimidin-4-one], the IC50 in test [1] (setting [2]) was 15 nM; at human PI3Kα (setting [3]), not below 10000 nM.

On to `Nc1ccc(C(=O)CN2c3nc(N4CC5CC4CO5)cc(=O)n3CC[C@H]2C(F)(F)F)cn1` (stereo partly drawn) [Compound 3, (8S)-9-[2-(6-Aminopyrid-3-yl)-2-oxoethyl]-2-oxa-5-azabicyclo[2.2.1]hept-5-yl-8-trifluoromethyl-6,7,8,9-tetrahydropyrimido[1,2-a]pyrimidin-4-one], for which the IC50 is 13 nM in test [1] and 7200 nM on human PI3Kα (setting [3]).

For `Cc1ccc(C(=O)CN2c3nc(N4C[C@@H]5C[C@H]4CO5)cc(=O)n3CC[C@H]2C(F)(F)F)cn1` [Compound 4, (8S)-9-[2-(6-methylpyrid-3-yl)-2-oxoethyl]-2-(1S,4S)-2-oxa-5-azabicyclo[2.2.1]hept-5-yl-8-trifluoromethyl-6,7,8,9-tetrahydropyrimido[1,2-a]pyrimidin-4-one], the values for the IC50 (in test [1] (setting [2]); on human PI3Kα (setting [3])) were 58 nM and more than 10000 nM, respectively.

As for `CNc1ccc(C(=O)CN2c3nc(N4C[C@@H]5C[C@H]4CO5)cc(=O)n3CC[C@H]2C(F)(F)F)cn1` [Compound 5, (8S)-9-[2-(6-methylaminopyrid-3-yl)-2-oxoethyl]-2-(1S,4S)-2-oxa-5-azabicyclo[2.2.1]hept-5-yl-8-trifluoromethyl-6,7,8,9-tetrahydropyrimido[1,2-a]pyrimidin-4-one], the IC50 was 95 nM in test [1] (setting [2]) and 8200 nM on human PI3Kα (setting [3]).

As to `CN(C)c1ccc(C(=O)CN2c3nc(N4C[C@@H]5C[C@H]4CO5)cc(=O)n3CC[C@H]2C(F)(F)F)cn1` [Compound 6, (8S)-9-[2-(6-dimethylaminopyrid-3-yl)-2-oxoethyl]-2-(1S,4S)-2-oxa-5-azabicyclo[2.2.1]hept-5-yl-8-trifluoromethyl-6,7,8,9-tetrahydropyrimido[1,2-a]pyrimidin-4-one], the IC50 in test [1] (setting [2]) was more than 200 nM; on human PI3Kα (setting [3]), more than 10000 nM.

Take `O=C(CN1c2nc(N3C[C@@H]4C[C@H]3CO4)cc(=O)n2CC[C@H]1C(F)(F)F)c1cccnc1` [Compound 7, (8S)-2-(1S,4S)-2-oxa-5-azabicyclo[2.2.1]hept-5-yl-9-(2-oxo-2-pyrid-3-ylethyl)-8-trifluoromethyl-6,7,8,9-tetrahydropyrimido[1,2-a]pyrimidin-4-one]: the IC50 in test [1] (setting [2]) was 10 nM; at human PI3Kα (setting [3]) it was not below 10000 nM.

Turning to `CN(C)c1ccc(C(=O)CN2c3nc(N4C[C@@H]5C[C@H]4CO5)cc(=O)n3C[C@@]2(C)C(F)(F)F)cn1` [Compound 8, 1-[2-(6-Dimethylaminopyrid-3-yl)-2-oxoethyl]-2-(S)-methyl-7-(1S,4S)-2-oxa-5-azabicyclo[2.2.1]hept-5-yl-2-trifluoromethyl-2,3-dihydro-1H-imidazo[1,2-a]pyrimidin-5-one], the values for the IC50 (in test [1] (setting [2]); at human PI3Kα (setting [3])) were more than 200 nM and more than 10000 nM, respectively.

For `CNc1ccc(C(=O)CN2c3nc(N4C[C@@H]5C[C@H]4CO5)cc(=O)n3C[C@@]2(C)C(F)(F)F)cn1` [Compound 9, 2-methyl-1-[2-(6-methylaminopyrid-3-yl)-2-oxoethyl]-7-(1S,4S)-2-oxa-5-azabicyclo[2.2.1]hept-5-yl-2-((S)-trifluoromethyl)-2,3-dihydro-1H-imidazo[1,2-a]pyrimidin-5-one], the IC50 was more than 200 nM in test [1] (setting [2]) and more than 10000 nM at human PI3Kα (setting [3]).

With `COc1ccc(CCN2c3nc(N4C[C@@H]5C[C@H]4CO5)cc(=O)n3C[C@@]2(C)C(F)(F)F)cc1` [Compound 10, (8S)-1-[2-(4-Methoxyphenyl)ethyl]-2-methyl-7-(1S,4S)-2-oxa-5-azabicyclo[2.2.1]hept-5-yl-2-trifluoromethyl-2,3-dihydro-1H-imidazo[1,2-a]pyrimidin-5-one], the values for the IC50 (in test [1]; on human PI3Kα (setting [3])) were 11 nM and 7200 nM, respectively.

For the molecule `C[C@@]1(C(F)(F)F)Cn2c(nc(N3C[C@@H]4C[C@H]3CO4)cc2=O)N1CC(=O)c1ccc(N)nc1` [Compound 11, (S)-1-[2-(6-Aminopyrid-3-yl)-2-oxoethyl]-2-methyl-7-(1S,4S)-2-oxa-5-azabicyclo[2.2.1]hept-5-yl-2-trifluoromethyl-2,3-dihydro-1H-imidazo[1,2-a]pyrimidin-5-one], the IC50 was 40 nM in test [1] (setting [2]) and not below 10000 nM at human PI3Kα (setting [3]).

With `O=c1cc(N2C[C@@H]3C[C@H]2CO3)nc2n1CC[C@@H](C(F)(F)F)N2CCc1cccnc1` [Compound 12, (8S)-2-(1S,4S)-2-oxa-5-azabicyclo[2.2.1]hept-5-yl-9-(2-pyrid-3-ylethyl)-8-trifluoromethyl-6,7,8,9-tetrahydropyrimido[1,2-a]pyrimidin-4-one], the IC50 in test [1] (setting [2]) turned out to be 9 nM; on human PI3Kα (setting [3]), 2900 nM.

Regarding `O=c1cc(N2CC3CCC(C2)O3)nc2n1CC[C@@H](C(F)(F)F)N2C[C@@H](O)c1ccccc1` [Compound 80, (8S)-9-((S)-2-hydroxy-2-phenylethyl)-2-(8-oxa-3-azabicyclo[3.2.1]oct-3-yl)-8-trifluoromethyl-6,7,8,9-tetrahydropyrimido[1,2-a]pyrimidin-4-one], the IC50 on human PI3Kα (setting [3]) stood at 1600 nM.

As to `COc1ccc(CCN2c3nc(N4CC5CCC(C4)O5)cc(=O)n3CC[C@H]2C(F)(F)F)cc1` [Compound 81, (8S)-9-[2-(4-Methoxyphenyl)ethyl]-2-(8-oxa-3-azabicyclo[3.2.1]oct-3-yl)-8-trifluoromethyl-6,7,8,9-tetrahydropyrimido[1,2-a]pyrimidin-4-one], at human PI3Kα (setting [3]), the IC50 was determined as 2000 nM.

As to `O=C(CN1c2nc(N3CC4CCC(C3)O4)cc(=O)n2CC[C@H]1C(F)(F)F)c1cccnc1` [Compound 87, (8S)-2-(8-Oxa-3-azabicyclo[3.2.1]oct-3-yl)-9-(2-oxo-2-pyrid-3-ylethyl)-8-trifluoromethyl-6,7,8,9-tetrahydropyrimido[1,2-a]pyrimidin-4-one], at human PI3Kα (setting [3]), the IC50 is not below 10000 nM.

On to `COc1ccc(CCN2c3nc(N4CCOCC4)cc(=O)n3C[C@@]2(C)C(F)(F)F)cc1` [Example 1 (p. 39, WO 2011/001 112), reference compound], for which the IC50 on human PI3Kα (setting [4]) was found to be 15 nM.

For `COc1ccc(CCN2c3nc(N4CCOCC4)cc(=O)n3CC[C@H]2C(F)(F)F)cc1` [Example 1 (p. 44, WO 2011/001 113), reference compound], the IC50 on human PI3Kα (setting [4]) was determined as 9 nM.

With `C[C@@]1(C(F)(F)F)Cn2c(nc(N3CCOCC3)cc2=O)N1C[C@@H](O)c1ccccc1` [Example 10 (p. 61, WO 2011/001 112), reference compound], on human PI3Kα (setting [4]), the IC50 was determined as 17 nM.
